Measured values published in patent US20180185374A1, “INHIBITORS OF MTOR KINASE AS ANTI-VIRAL AGENTS” (THE TRUSTEES OF PRINCETON UNIVERSITY, priority 2009, published 2018).

Tested on: eIF4F complex
Test: m7G-Sepharose cap-binding assay, MCMV-infected MEFs
Type: cell-based, mouse
Details: Torin1 250 nM, 48 hpi
Procedure: FIG. 7. […] At 6 days post infection the amount of MCMV in cell-free supernatants was determined by the TCID50 method. The error bars represent the standard errors of the means from three independent experiments, each performed in duplicate. […] At 48 hpi equal amounts of protein from cell lysates were incubated with m^7G-Sepharose. The presence of eIF4F complex components bound by the cap analog was determined by Western blotting. The results are representative of two independent experiments.
We first investigated the requirement for mTORC2 for the replication of MCMV. […] Finally, the cells were confirmed to lack an intact Rictor locus when assayed by PCR (FIG. 6C). We also employed Akt1/Akt2-null MEFs to evaluate a possible role for the Akt kinase, one of the targets of mTORC2. […] Again, the cells were confirmed to lack Akt by Western blot assay (FIG. 6F). […] 4EBP1 functions to inhibit eIF4F complex assembly unless inactivated by mTORC1-mediated phosphorylation. […] Finally, that 4EBP1 was not detected in lysates of these cells by Western blot assay confirmed the phenotype of the MEFs.

## CCC(=O)N1CCN(c2ccc(-n3c(=O)ccc4cnc5ccc(-c6cnc7ccccc7c6)cc5c43)cc2C(F)(F)F)CC1 [Torin1]
4EBP1-null MEFs
  formation of the eIF4F complex: no such effect was observed
Control MEFs
  formation of the eIF4F complex: inhibited the formation of the eIF4F complex
